Data reported in patent publication US4511568A, “CNS-Depressant pyrazolopyridines” (ICI Americas Inc., priority 1982, dated 1985).

What was measured:
[1] = test system: [^3 H]flunitrazepam binding, lysed mitochondrial-synaptosomal (P2) fraction from the cerebral cortex; conditions: general statement on reference compounds; cited from earlier work
[2] = test system: rats; assay: Shock-Induced Suppression of Drinking (Rats) (SSD) Test; format: in vivo, rat; conditions: significant, P less than 0.05, Students' t-test, vs control
Protocol: Male rats in the weight range of 200 to 220 grams are deprived of water for 48 hours and deprived of food for 24 hours before testing. Normally, the rats are orally intubated (5 ml/kg) with the test compound (based on mg/kg body weight). The vehicle control group of rats is also intubated by mouth. A positive control group of rats is also orally administered a control dose of 18 mg/kg of chlordiazepoxide. Random selection of the rats is utilized in dosing. The rats are returned to the cage for one hour. Sixty minutes after drug administration, the rat is quietly removed from its cage and the hind feet wiped with Signa electrode gel made by Parker Laboratories or Orange, N.J. When intraperitoneal (i.p.) administration was used, the protocol was identical except that the drugs were administered (5 ml/kg) 30 minutes prior to testing. The rat is placed on the floor in the chamber facing the licking tube. The animal is allowed 5 minutes to make 20 licking responses and receive the first shock (0.5 mA). […] This period is automatically started, counted and terminated. The number of licks and shocks are recorded. The activity of the compound tested is evaluated by comparing the mean shocks of the group dosed with the test compound to both the mean shocks of the vehicle and positive control groups via a Students' t-test. […]

[3] = test system: monkeys; assay: oral administration to monkeys, deaths; format: in vivo, monkey; conditions: 100 mg/kg
[4] = approximate oral LD50 in the rat; conditions: in vivo
[5] = test system: [^3 H]flunitrazepam binding, lysed mitochondrial-synaptosomal (P2) fraction from the cerebral cortex; assay: [^3 H]flunitrazepam binding test; conditions: 0.2 nM [^3 H]flunitrazepam, rat cerebral cortex membranes, 90 min at 0° C.

SMILES	effect on flunitrazepam binding (known compounds) [1]	increase in the number of shocks taken (anti-conflict / anti-anxiety activity) [2]	deaths [3]	LD50 [4] [mg/kg]	effect on flunitrazepam binding [5]
CCCCNc1c(C(=O)OCC)c(C)nc2c1cnn2CC [tracazolate]	enchancement of the binding				
CCCCCn1ncc2c(N)c3c(nc21)CN(CCC)C3=O [Example 5, 4-Amino-6,7-dihydro-1-n-pentyl-6-n-propylpyrazolo[3,4-b]pyrrolo[3,4-e]pyridin-5(1H)-one]		showed activity	no deaths	> 800	activity as displacers of flunitrazepam binding
C=CCN1Cc2nc3c(cnn3CCCCC)c(N)c2C1=O [Example 4, 6-Allyl-4-amino-6,7-dihydro-1-n-pentylpyrazolo[3,4-b]pyrrolo[3,4-e]pyridin-5(1H)-one]		showed activity			activity as displacers of flunitrazepam binding
CCCCNc1c(C(=O)OCC)cnc2c1cnn2CC [cartazolate]	enchancement of the binding				
